Literature values as cited in patent US20240268433A1, “Nutritional Compositions for Preserving Muscle Mass” (Dutch Medical Food B.V., priority 2021, published 2024).

Experiments:
[1] = tested on: adults between the age of 25 and 59 years
GABAA receptor = settings: chicken; administered with serine
[2] = tested on: female individuals that complain about their sleep quality
[3] = tested on: elderly adults exposed to bedrest; settings: bed rest induced muscle atrophy

Compound: N[C@@H](CO)C(=O)O [serine]
- resistance or rebound insomnia after discontinuation of ingestion ([1]; after discontinuation of ingestion): did not appear to suffer from resistance or occurrence of rebound insomnia
- quality of sleep (sleep initiation, nighttime awakenings) ([1]; ingestion about 30 minutes before going to sleep): beneficial effect on the quality of sleep

Compound: picrotoxin
- effect on sedative and hypnotic effect of serine (GABAA receptor): attenuated the sedative and hypnotic effect of serine

Compound: NCC(=O)O [glycine]
- daytime sleepiness ([2]; especially in the morning): positive effect
- subjective quality of sleep ([2]; ingestion prior to sleep): beneficial effect on the subjective quality of sleep

Compound: CC(C)(O)CC(=O)O [HMB, Beta-hydroxy beta-methylbutyrate]
- derangements in skeletal muscle metabolism and mitochondria [3]: able to attenuate and prevent derangements in skeletal muscle metabolism and mitochondria
